Among the data in ChEMBL document CHEMBL1143263, “HY253, a novel compound isolated from Aralia continentalis, induces apoptosis via cytochrome c-mediated intrinsic pathway in HeLa cells” (Bioorg Med Chem Lett, 2009) are Activity and IC50 values, retold here.

Active and inactive are the calls of the source. No cut-off for these calls is given here.

Common to all, as to assay type: functional, cell-based
The test system of test [1] is HeLa. Briefly: Induction of apoptosis in human HeLa cells assessed as increase in pro-apoptotic Bak protein at 100 uM after 24 hrs by Western blot.
For test [2], the system named is HeLa. Kind of test: Induction of apoptosis in human HeLa cells assessed as cytochrome C release from mitochondria at 100 uM after 24 hrs by confocal microscopy.
In test [3] the test system is HeLa. Briefly: Antiproliferative activity against human HeLa cells after 48 hrs by MTT assay.
Test [4] relates to HeLa. Kind of test: Induction of apoptosis in human HeLa cells assessed as fragmented apoptotic bodies at 100 uM after 24 hrs by DAPI staining.
The test system of test [5] is HeLa. Kind of test: Induction of apoptosis in human HeLa cells at 100 uM after 24 hrs by TUNEL assay.
Test [6] relates to HeLa. Briefly: Induction of apoptosis in human HeLa cells at 100 uM after 48 hrs by TUNEL assay.
The test system of test [7] is HeLa. Kind of test: Induction of apoptosis in human HeLa cells assessed as caspase-8 activation at 100 uM by Western blot.
Test [8] has as its system HeLa. Kind of test: Induction of apoptosis in human HeLa cells assessed as caspase-9 activation at 100 uM by Western blot.
In test [9] the test system is HeLa. Kind of test: Induction of apoptosis in human HeLa cells assessed as caspase-3 activation at 100 uM by Western blot.
Test [10] deals with HeLa. Briefly: Induction of apoptosis in human HeLa cells assessed as PARP cleavage at 100 uM by Western blot.
The subject of test [11] is HeLa. Kind of test: Induction of apoptosis in human HeLa cells assessed as increase in pro-apoptotic Bax protein at 100 uM after 24 hrs by Western blot.

In the case of `C=CC1CCC2(O)C(C=C)(C1)CC1(O)CC(O)C=CC12O` (configuration not stated), the outcome in the test with HeLa [1], with HeLa [2], in the test on HeLa [4], in the test with HeLa [5], in the test on HeLa [6] and in the test with HeLa [7] was Active. For the same compound, the result in the test with HeLa [8], with HeLa [9], in the test on HeLa [10] and in the test with HeLa [11] was Active. In the test on HeLa [3], the Activity result is “Dose-dependent effect”. The IC50 in the test with HeLa [3] amounted to 81.5 µM.
